From article PMC12490239, “Combining BET inhibition with SMAC mimetics restricts tumor growth and triggers immune surveillance in preclinical cancer models” (Cell Reports Medicine, 2025)

Columns and labels:
Assay in all cases: cells
Design in all cases: CellTiter-Glo 2.0 luminescence proliferation/viability assay, single agents, human tumour cell line panel
[1] = test system: SNU1040; settings: 96 h; single agent; read-out: IC50 SMACm
Summary of the method: (§1)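 Human tumour cell lines were seeded into assay plates and held at 37°C with 5% CO2 for twenty-four hours, then exposed in triplicate to rising concentrations of the SMAC mimetic, from 4.5 nM to 10 μM, with DMSO as control. After 96 h, viability was read as CellTiter-Glo2.0 luminescence to derive single-agent IC50 values.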

[2] = test system: Gp2D; settings: GP2d, 96 h; single agent; read-out: IC50 SMACm
Summary of the method: as §1

[3] = test system: HGC-27; settings: Homo sapiens, HGC-27, 96 h; single agent; read-out: IC50 SMACm
Summary of the method: as §1

IC50 [1]: 3.59 µM
Compound: CN[C@@H](C)C(=O)Nc1ccc(-c2c(-c3cccnc3OC)nc3cc(C)ccn23)c(C#Cc2ccc3c(C)nccc3c2)n1 [SMACm, BI 891065]
IC50 [2]: 3.62 µM
IC50 [3]: 2.89 µM
